In patent US10166239B2, “Tropomyosin-related kinase (Trk) inhibitors” (Genzyme Corporation, priority 2013, dated 2019):

Key:
[1] = system: Reactivated Peptidoglycan-Polysaccharide Knee Arthritis; test: Reactivated peptidoglycan-polysaccharide (PGPS) knee arthritis; format: in vivo, Male Lewis rats; conditions: for gait scores, second reactivation: intra-articular dose on day −7 (Triamcinolone 0.06 mg: day 15, 17, 18; test compound 1 mg: throughout second reactivation); for gait deficiency, second reactivation / gait scores and deficiency, first reactivation: intra-articular dose on day −7 (Triamcinolone 0.06 mg; test compound 1 mg); for gait deficiency, second reactivation: days 15, 17 and 18; for gait scores and deficiency, first reactivation: first reactivation (days 1-4)
Source text: Male Lewis rats were acclimated to the testing facility for 7 days. The rats were housed in 5 per cage in shoe-box polycarbonate cages with wire tops, wood chip bedding and suspended food and water bottles. On day −21, the male Lewis rats were randomized into treatment groups by body weight. The rats were anesthetized and injected with peptidoglycan-polysaccharide (PGPS) into the right knee to induce PGPS arthritis. Arthritis was reactivated on days 0 and 14 by an IV tail injection of PGPS. […] The rats were weighed at baseline on days 0, 4, 14 and 18. […] Gait analysis was performed by applying ink to the ventral surface of the foot and documenting weight bearing during movement across paper. The animals were terminated at day 18. Right knees were removed, trimmed of extraneous tissue, and collected into 10% neutral buffered formalin. After two days in the formalin buffer and three days in 10% formic acid decalcifier, the knees were cut into two approximately equal halves in the frontal plane and processed for paraffin embedding and stained with T. Blue. Histological examinations were subsequently performed for bone resorption, inflammation, pannus and cartilage damage. […] Gait scores were analyzed using a Kruskal-Wallis test (non-parametric ANOVA) with Dunn's multiple comparison post-test. Histopathology scores were analyzed using a Kruskal-Wallis test (non-parametric ANOVA) with Dunn's multiple comparison post-test.

[2] = system: Monosodium Iodoacetate Induced Osteoarthritis; test: Monosodium iodoacetate (MIA) induced osteoarthritis; format: in vivo, Male Wistar rats
Source text: Male Wistar rats were acclimated to the testing facility for 5 days. The rats were individually housed in micro-isolator shoe-box polycarbonate cages with cob bedding and water bottles. Dry pelleted food of known composition and nutritional components was provided ad libitum Animals were randomized by treatment type using an online random number generator. Each treatment group was assigned a number, entered into the random number generator, recorded then translated back to the associated treatment. All injections were given in the left leg unless the treatment indicated “Contralateral” in which case the injection was given in the right leg. Both legs were shaved on all animals at the time of the treatment injections to blind the test administrator. The rats were weighed the day prior to injection with monosodium iodoacetate (MIA), the agent used to induce osteoarthritis in the animals. The day of injection, rats from groups 2-8 received a subcutaneous (SC) dose of buprenorphine at least one hour prior to induction. […] Naïve animals were then placed in recovery. All other animals received an injection of MIA. In animals receiving MIA, the hind leg was flexed and an injection of MIA (25 μL) was injected into the intra-articular space using a 27 gauge ½ inch needle. Standard postoperative care was performed (twice daily for 48 hours). On Day 8 the test article was administered as described above. On Days −1, 7, 14, 21, 28, and 35 post-induction, weight bearing was assessed. A weight bearing scale was utilized using a plexiglass chamber to assess the amount of weight distributed in each hind limb. The animals were acclimated to the chamber for at least 5 minutes prior to testing and the weight distribution was recorded 5 times. The animals were terminated at day 36. Both stifles were collected from each animal; the skin was removed from the joint and the patella was removed while leaving as much of the fat pad intact with the joint. The stifle was placed in the appropriate cassette with rolled gauze to secure the stifle in the cassette and then placed into 4% Paraformaldehyde. These samples were examined histologically.

[3] = Triamcinolone 0.06 mg intra-articular

Structure (SMILES)	AUC values of knee caliper measurements ([1]; 1 mg intra-articular)	reduction of AUC values of gait scores and deficiency, first reactivation ([1]; 1 mg intra-articular)	reduction of AUC values of gait scores and deficiency, second reactivation ([1]; 1 mg intra-articular)	Knee caliper measurements ([1]; 1 mg intra-articular, day 14 (just prior to the second reactivation))	gait scores, second reactivation [1]	gait deficiency, second reactivation [1]	gait scores and deficiency, first reactivation [1]	efficacy (weight bearing) ([2]; 10 μg Contralateral injection)	efficacy (weight bearing) ([2]; 10 μg Ipsilateral injection)	efficacy (weight bearing) ([2]; 30 μg Contralateral injection)	efficacy (weight bearing) ([2]; 30 μg Ipsilateral injection)	systemic pain relief (weight bearing) ([2]; 100 μg Contralateral injection, 1-4 weeks)	efficacy (weight bearing) ([2]; 100 μg Ipsilateral injection)	MIA/LRS compared with treatment (p<0.05) ([2]; Ipsilateral 100 μg and 30 μg, day 35)	body weight results ([2]; intra-articular 10, 30, 100 μg on Day 8)	Histopathology of the knee joint, adverse changes ([2]; stifles collected at day 36)	reduction of AUC values of gait scores and deficiency, each reactivation calculated separately [1, 3]	reduction of AUC values of gait scores and deficiency, summed [1, 3]	reductions in the AUC of knee caliper measurements [1, 3]	Knee caliper measurements ([1]; Triamcinolone 0.06 mg intra-articular, days 0, 2, 4, 16 and 18)
COc1ccc(COc2ccc(Cn3c(N)nc4cc(-c5cnn(C)c5)cnc43)cc2OC)cc1 [Ex. 3-15, 3-(3-Methoxy-4-((4-methoxybenzyl)oxy)benzyl)-6-(1-methyl-1H-pyrazol-4-yl)-3H-imidazo[4,5-b]pyridin-2-amine]	generally unaffected	92-93%	85-86%	significantly reduced on day 14	significantly reduced throughout the second reactivation	reductions in deficiency were significant	significant reductions	efficacy at 3 and 4 weeks following administration	efficacy was observed at 2 through 4 weeks following administration	efficacy at only the 3 week timepoint	effective throughout the four weeks following administration	did not show systemic pain relief at any timepoint	effective throughout the four weeks following administration	MIA/LRS was significantly worse	No adverse observations	no adverse changes	–	–	–	–
C[C@]12C=CC(=O)C=C1CC[C@H]1[C@@H]3C[C@@H](O)[C@](O)(C(=O)CO)[C@@]3(C)C[C@H](O)[C@@]12F [Triamcinolone, reference compound]	–	–	–	–	significantly reduced	significantly reduced	significantly reduced	–	–	–	–	–	–	–	–	–	74-99%	88-92%	53-106%	significantly reduced
